Source: US20100099561A1, “HETEROBICYCLIC ALKYLTHIO-BRIDGED ISOXAZOLINES” (E.I. DU PONT DE NEMOURS AND COMPANY, priority 2008, published 2010)

Legend:
Type in all cases: in vivo
[1] = tested on: wheat (Triticum aestivum); test: Test A postemergence, wheat; settings: 0 to 100 scale (0 no effect, 100 complete control)
Procedure, shortened: (§1)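 Ratings of 0–100 (0 no effect, 100 complete control) came from visual comparison with untreated controls after roughly ten days in a greenhouse. Plants in loam soil–sand blend were treated with compound in non-phytotoxic solvent plus surfactant, pre- or postemergence (one- to two-leaf stage).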

corn (Zea mays) [2] = test: Test A preemergence, corn; settings: 0 to 100 scale (0 no effect, 100 complete control)
Procedure, shortened: as §1

[3] = tested on: morningglory (Ipomoea spp.); test: Test A postemergence, morningglory; settings: 0 to 100 scale (0 no effect, 100 complete control)
Procedure, shortened: as §1

[4] = tested on: large crabgrass (Digitaria sanguinalis); test: Test A postemergence, large crabgrass; settings: 0 to 100 scale (0 no effect, 100 complete control)
Procedure, shortened: as §1

[5] = tested on: morningglory (Ipomoea spp.); test: Test A preemergence, morningglory; settings: 0 to 100 scale (0 no effect, 100 complete control)
Procedure, shortened: as §1

[6] = tested on: barnyardgrass (Echinochloa crus-galli); test: Test B flooded paddy test, barnyardgrass; settings: Flood
Procedure, shortened: (§2)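 2-leaf plants; pots flooded 3 cm above soil; compound added to paddy water; depth maintained. Greenhouse 13–15 d. Visual rating vs controls, 0 (no effect) to 100 (complete control); dash = no result.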

[7] = tested on: pigweed (Amaranthus retroflexus); test: Test A postemergence, pigweed; settings: 0 to 100 scale (0 no effect, 100 complete control)
Procedure, shortened: as §1

[8] = tested on: velvetleaf (Abutilon theophrasti); test: Test A postemergence, velvetleaf; settings: 0 to 100 scale (0 no effect, 100 complete control)
Procedure, shortened: as §1

[9] = tested on: large crabgrass (Digitaria sanguinalis); test: Test A preemergence, large crabgrass; settings: 0 to 100 scale (0 no effect, 100 complete control)
Procedure, shortened: as §1

[10] = tested on: ducksalad (Heteranthera limosa); test: Test B flooded paddy test, ducksalad; settings: Flood, scale 0 to 100
Procedure, shortened: as §2

[11] = tested on: velvetleaf (Abutilon theophrasti); test: Test A preemergence, velvetleaf; settings: 0 to 100 scale (0 no effect, 100 complete control)
Procedure, shortened: as §1

[12] = tested on: barnyardgrass (Echinochloa crus-galli); test: Test A preemergence, barnyardgrass; settings: 0 to 100 scale (0 no effect, 100 complete control)
Procedure, shortened: as §1

[13] = tested on: giant foxtail (Setaria faberi); test: Test A postemergence, giant foxtail; settings: 0 to 100 scale (0 no effect, 100 complete control)
Procedure, shortened: as §1

rice (Oryza sativa) = test: Test B flooded paddy test, rice; settings: Flood, scale 0 to 100
Procedure, shortened: as §2

[14] = tested on: umbrella sedge (Cyperus difformis); test: Test B flooded paddy test, umbrella sedge; settings: Flood, scale 0 to 100
Procedure, shortened: as §2

corn (Zea mays) [15] = test: Test A postemergence, corn; settings: 0 to 100 scale (0 no effect, 100 complete control)
Procedure, shortened: as §1

[16] = tested on: pigweed (Amaranthus retroflexus); test: Test A preemergence, pigweed; settings: 0 to 100 scale (0 no effect, 100 complete control)
Procedure, shortened: as §1

[17] = tested on: wheat (Triticum aestivum); test: Test A preemergence, wheat; settings: 0 to 100 scale (0 no effect, 100 complete control)
Procedure, shortened: as §1

[18] = tested on: giant foxtail (Setaria faberi); test: Test A preemergence, giant foxtail; settings: 0 to 100 scale (0 no effect, 100 complete control)
Procedure, shortened: as §1

[19] = tested on: barnyardgrass (Echinochloa crus-galli); test: Test A postemergence, barnyardgrass; settings: 0 to 100 scale (0 no effect, 100 complete control)
Procedure, shortened: as §1

Structure (SMILES)	Plant response rating, Wheat ([1]; 125 g ai/ha)	Plant response rating, Wheat ([1]; 500 g ai/ha)	Plant response rating, Corn (corn (Zea mays) [2]; 125 g ai/ha)	Plant response rating, Corn (corn (Zea mays) [2]; 500 g ai/ha)	Plant response rating, Morningglory ([3]; 125 g ai/ha)	Plant response rating, Morningglory ([3]; 500 g ai/ha)	Plant response rating, Crabgrass, Large ([4]; 125 g ai/ha)	Plant response rating, Crabgrass, Large ([4]; 500 g ai/ha)	Plant response rating, Morningglory ([5]; 125 g ai/ha)	Plant response rating, Morningglory ([5]; 500 g ai/ha)	Plant response rating, Pigweed ([7]; 125 g ai/ha)	Plant response rating, Pigweed ([7]; 500 g ai/ha)	Plant response rating, Velvetleaf ([8]; 125 g ai/ha)	Plant response rating, Velvetleaf ([8]; 500 g ai/ha)	Plant response rating, Crabgrass, Large ([9]; 125 g ai/ha)	Plant response rating, Crabgrass, Large ([9]; 500 g ai/ha)	Plant response rating, Velvetleaf ([11]; 125 g ai/ha)	Plant response rating, Velvetleaf ([11]; 500 g ai/ha)	Plant response rating, Barnyardgrass ([12]; 125 g ai/ha)	Plant response rating, Barnyardgrass ([12]; 500 g ai/ha)	further results
Cc1cc2nc(C(F)(F)F)c(C[S+]([O-])C3=NOC(C)(C)C3)c(=O)n2o1 (centres unmarked) [Compound 50]	0	0	0	0	0	10	0	50	0	0	0	0	0	0	0	70	0	0	0	70	Plant response rating, Barnyardgrass ([6]; 62 g ai/ha, scale 0 to 100): 0; Plant response rating, Barnyardgrass ([6]; 250 g ai/ha, scale 0 to 100 (0 no effect, 100 complete control)): 0; Plant response rating, Ducksalad ([10]; 62 g ai/ha): 0; Plant response rating, Ducksalad ([10]; 250 g ai/ha): 0; Plant response rating, Foxtail, Giant ([13]; 125 g ai/ha): 0; Plant response rating, Foxtail, Giant ([13]; 500 g ai/ha): 60; Plant response rating, Rice (rice (Oryza sativa); 62 g ai/ha): 0; Plant response rating, Rice (rice (Oryza sativa); 250 g ai/ha): 0; Plant response rating, Sedge, Umbrella ([14]; 62 g ai/ha): 0; Plant response rating, Sedge, Umbrella ([14]; 250 g ai/ha): 0; Plant response rating, Corn (corn (Zea mays) [15]; 125 g ai/ha): 0; Plant response rating, Corn (corn (Zea mays) [15]; 500 g ai/ha): 30; Plant response rating, Pigweed ([16]; 125 g ai/ha): 0; Plant response rating, Pigweed ([16]; 500 g ai/ha): 0; Plant response rating, Wheat ([17]; 125 g ai/ha): 0; Plant response rating, Wheat ([17]; 500 g ai/ha): 0; Plant response rating, Foxtail, Giant ([18]; 125 g ai/ha): 0; Plant response rating, Foxtail, Giant ([18]; 500 g ai/ha): 70; Plant response rating, Barnyardgrass ([19]; 125 g ai/ha): 0; Plant response rating, Barnyardgrass ([19]; 500 g ai/ha): 60
CC1(C)CC(S(=O)(=O)Cc2c(C(F)(F)Cl)nc3n(c2=O)CCCC3)=NO1 [Compound 30]	0	50	0	0	10	50	60	80	30	40	50	60	20	50	90	100	40	60	50	100	Plant response rating, Barnyardgrass ([6]; 31 g ai/ha, scale 0 to 100): 0; Plant response rating, Barnyardgrass ([6]; 125 g ai/ha, scale 0 to 100): 0; Plant response rating, Ducksalad ([10]; 31 g ai/ha): 0; Plant response rating, Ducksalad ([10]; 125 g ai/ha): 0; Plant response rating, Foxtail, Giant ([13]; 125 g ai/ha): 60; Plant response rating, Foxtail, Giant ([13]; 500 g ai/ha): 80; Plant response rating, Rice (rice (Oryza sativa); 31 g ai/ha): 0; Plant response rating, Rice (rice (Oryza sativa); 125 g ai/ha): 0; Plant response rating, Sedge, Umbrella ([14]; 31 g ai/ha): 0; Plant response rating, Sedge, Umbrella ([14]; 125 g ai/ha): 0; Plant response rating, Corn (corn (Zea mays) [15]; 125 g ai/ha): 0; Plant response rating, Corn (corn (Zea mays) [15]; 500 g ai/ha): 0; Plant response rating, Pigweed ([16]; 125 g ai/ha): 70; Plant response rating, Pigweed ([16]; 500 g ai/ha): 100; Plant response rating, Wheat ([17]; 125 g ai/ha): 0; Plant response rating, Wheat ([17]; 500 g ai/ha): 50; Plant response rating, Foxtail, Giant ([18]; 125 g ai/ha): 90; Plant response rating, Foxtail, Giant ([18]; 500 g ai/ha): 100; Plant response rating, Barnyardgrass ([19]; 125 g ai/ha): 60; Plant response rating, Barnyardgrass ([19]; 500 g ai/ha): 80
